The subject of this assay is lymphoma. The assay is described as follows: Lymphoma incidence in mice (National Institute of Health experiment). The class given is in vivo. The following applies: reduced from 10-20%. The protocol: In another experiment at the National Institute of Health, in other mice after radiation exposure which caused 90% of them to develop lymphoma, there was a reduction of the lymphoma incidence to 40% and the spontaneous frequency was reduced from 10-20% down to 0%. […] This was observed after treating mice right after birth, if humans are treated later in life it is possible that only 10 or 5 years are added and probably more for DNA repair deficient diseases like ataxia telangiectasia (ATM) which is still very substantial, especially, since it treats and reduces the likelihood of many diseases.

For the compound `COc1ccc2cc(-c3nc4ccc(C)cn4c3NCc3ccco3)c(=O)[nH]c2c1` [YEL002], the spontaneous lymphoma frequency is recorded as 0%.

(Values after patent US20240325375A1, “Effect of YEL002 on Psychological and Psychiatric Factors in Health and Disease” (RadMit, Inc., priority 2023, published 2024).)
